Source: patent US20220334133A1, “METHODS AND COMPOUNDS MODIFYING MITOCHONDRIAL FUNCTION” (The Board of Trusteesof the Leland Stanford Junior …, priority 2019, published 2022)
Structures can show the parent of a compound that is named as a salt.

tested on: Fibroblast cells; assay: Toxicity observed in hit confirmation; format: cell-based, human; settings: highest screening concentration, sporadic PD fibroblast line
Description: Fibroblast cells were plated in 6-well plates (VWR, 10861-554) on coverslips (Fisher scientific, 22-293232) at 400.000 cells/well and plates were incubated at 37° C., 5% CO2 for 24 hrs. Next, newly ordered chemical compounds dissolved in DMSO were added at defined concentrations and plates were incubated at 37° C./5% CO2 for 10 hrs. Then, FCCP (final concentration of 20 μM, Carbonyl cyanide 4-(trifluoromethoxy)phenylhydrazone, Sigma-Aldrich, C2920) in cell media was added to defined wells and plates were incubated at 37° C., 5% CO2 for another 14 hrs. Cells were fixed with ice-cold 90% methanol (Fisher, 482332) for 20 min at −20° C., incubated with blocking buffer (10% Normal Goat Serum (NGS) (ThermoFisher, 50062Z), 0.5% BSA (ThermoFisher, BP1600), 0.2% Triton X-100 (ThermoFisher, T8787)) at 25° C. for 15 min and incubated with anti-Miro1 (Sigma-Aldrich, HPA0101687) at 1:100 in blocking buffer O/N at 4° C. […]

| Compound | Toxicity |
| --- | --- |
| O=C(O)CCC(=O)c1ccc(-c2ccccc2)cc1 [Fenbufen] | appeared toxic |

tested on: Miro1; assay: Hit confirmation: immunocytochemistry and confocal microscopy of Miro1 in sporadic PD fibroblasts; format: cell-based, human; settings: DMSO instead of FCCP, with compound at highest screening concentration; sporadic PD line; at least 4 biological replicates
Description: Fibroblast cells were plated in 6-well plates (VWR, 10861-554) on coverslips (Fisher scientific, 22-293232) at 400.000 cells/well and plates were incubated at 37° C., 5% CO2 for 24 hrs. Next, newly ordered chemical compounds dissolved in DMSO were added at defined concentrations and plates were incubated at 37° C./5% CO2 for 10 hrs. Then, FCCP (final concentration of 20 μM, Carbonyl cyanide 4-(trifluoromethoxy)phenylhydrazone, Sigma-Aldrich, C2920) in cell media was added to defined wells and plates were incubated at 37° C., 5% CO2 for another 14 hrs. Cells were fixed with ice-cold 90% methanol (Fisher, 482332) for 20 min at −20° C., incubated with blocking buffer (10% Normal Goat Serum (NGS) (ThermoFisher, 50062Z), 0.5% BSA (ThermoFisher, BP1600), 0.2% Triton X-100 (ThermoFisher, T8787)) at 25° C. for 15 min and incubated with anti-Miro1 (Sigma-Aldrich, HPA0101687) at 1:100 in blocking buffer O/N at 4° C. Samples were washed three times with 1×PBS (ThermoFisher, 10010-049), incubated with goat anti-Rabbit IgG (H+L) Cross-Adsorbed, Alexa Fluor 488 (ThermoFisher, A11008) at 1:500 in blocking buffer at 25° C. for 2 hrs and washed again three times with lx PBS, and finally samples were mounted with ProLong™ Glass Antifade Mountant with NucBlue™ Stain (hard-setting, Thermofisher, P36983) on glass slides and allowed to cure O/N. Samples were imaged at 25° C. with a 20×/N.A.0.60 oil Plan-Apochromat objective on a Leica SPE laser scanning confocal microscope (JH Technologies), with identical imaging parameters among different genotypes. Images were processed with ImageJ (Ver. 1.48, NIH) using the Intensity Ratio Nuclei Cytoplasm Tool (http://dev.mri.cnrs.fr/projects/imagej-macros/wiki/Intensity_Ratio_Nuclei_Cytoplasm_Tool), and average cytoplasmic intensity (the average intensity in the cytoplasm area) was plotted.
To reduce experimental bias such as the freshness the compounds, experimental reagents, and imaging devices, the 14 hits identified in the high-throughput screening were verified individually . The 14 compounds were tested at their highest screening concentrations with at least 4 biological replicates, using the same sporadic PD line. […] Samples were imaged with identical settings under the confocal microscope, and negative controls without primary antibodies yielded no signals under the imaging settings.

| Compound | Basal Miro1 levels (without mitochondrial depolarization) |
| --- | --- |
| COC(=O)C1=C(C)NC(C)=C(C(=O)OC2CCCN(Cc3ccccc3)C2)C1c1cccc([N+](=O)[O-])c1 (stereo not drawn) [Benidipine HCl] | no impact on basal Miro1 levels |
| CC[C@H](C)C(=O)O[C@H]1C[C@H](O)C=C2C=C[C@H](C)[C@H](CC[C@@H](O)C[C@@H](O)CC(=O)O)[C@H]21 [Pravastatin Sodium] | already reduced Miro1 protein at baseline |
| CN(CCCN1c2ccccc2CCc2ccccc21)CC(=O)c1ccc(Cl)cc1 [Lofepramine] | already reduced Miro1 protein at baseline |
| CN(C)CCC[C@@]1(c2ccc(F)cc2)OCc2cc(C#N)ccc21 [Escitalopram Oxalate] | already reduced Miro1 protein at baseline |

tested on: Miro1; assay: High-throughput screening assay for Miro1 reduction after FCCP (immunostaining, 384-well); format: cell-based, human; settings: Table 1A hits; 10 μM tested; PD patient fibroblasts, following FCCP treatment (20 μM, 14 hr)
Description: Human dermal primary fibroblasts isolated from a PD patient (ND33424) and a healthy control (ND36091) were cultured in cell media DMEM (ThermoFisher, 11995-065) supplemented with 10% fetal bovine serum (Gemini Bio-Products, 900-108, heat-inactivated), 1×Anti Anti (ThermoFisher, 15240096), and 1×GlutaMax (ThermoFisher, 35050061) maintained in a 37° C., 5% CO2 incubator with humidified atmosphere.
Fibroblast cells were plated onto clear-bottomed/black-walled 384-well plates (EK-30091, E&K Scientific, Santa Clara, Calif.) at 2000 cells/well with Matrix Wellmate dispenser (Thermo Scientific, Sunnyvale, Calif.) and plates were incubated at 37° C., 5% CO2 for 24 hrs. Next, chemical library compounds at defined concentrations, were added using fully automated liquid handling system Caliper Life Sciences Staccato system with a Twister II robot and a Sciclone ALH3000 (Caliper Life Sciences, Alameda, Calif. USA) integrated with a V&P Scientific pin tool and plates were incubated at 37° C./5% CO2 for 10 hrs. Then, 20 μM of FCCP (Carbonyl cyanide 4-(trifluoromethoxy)phenylhydrazone, Sigma-Aldrich, C2920) in cell media was added to defined wells and plates were incubated at 37° C., 5% CO2 for another 14 hr. Cells were fixed with ice-cold 90% methanol (Fisher, 482332) for 20 min at −20° C., incubated with blocking buffer (10% Normal Goat Serum (NGS) (ThermoFisher, 50062Z), 0.5% BSA (ThermoFisher, BP1600), 0.2% Triton X-100 (ThermoFisher, T8787) at room temperature (RT) for 15 min, and incubated with anti-Miro1 solution (Sigma-Aldrich, HPA0101687) at 1:100 in blocking buffer O/N at 4° C. Samples were washed with lx PBS (ThermoFisher, 10010-049) using a Plate Washer multivalve (Bio-Tek, ELx405UV), incubated with goat anti-Rabbit IgG (H+L) Cross-Adsorbed, Alexa Fluor 488 (ThermoFisher, A11008) at 1:500 in blocking buffer at 25° C. for 2 hrs and washed again with lx PBS, finally 1.0 μg/mL DAPI (ThermoFisher, D1306) in 1×PBS was added and plates were sealed using PlateLoc (Velocity11, 01867.001). All liquids were dispensed using the Multidrop 384 (Titertek, 5840200) unless otherwise stated. Fluorescent signals in plates were automatically imaged with ImageXpress Micro (Molecular Devices, IXMicro) and data were analyzed with MetaXpress Analysis (Molecular Devices). The percent of Miro1 reduction was calculated as % Positive Cells for Miro1/Median=[(Positive Cells Miro Integrated Intensity/All Nuclear Miro Integrated Intensity)−Plate Median of this same calculation (Median % Positive Miro/Nuclear Miro in Plate Data)]/[Plate Median of this same calculation (Median % Positive Miro/Nuclear Miro in Plate Data)]. Positive cells are cells having Miro1 immunostaining. […] Negative value indicates a reduction in Miro. Positive value indicates an increase in Miro. The screening and data analysis were carried out together with Stanford University High-Throughput Bioscience Centers (HTBC).
Drugs from the NIH Clinical collection library were screened at a defined 10 μM concentration with 4 biological repeats for each drug (377 compounds). […] These compounds are ranked in the order of the degree of Miro1 reduction (Table 1A). 12 small molecules that reduced Miro1 protein levels in 3 out of 4 biological repeats were ranked in order of degree of Miro1 reduction. […] These hits were ranked in order of the degree of Miro1 reduction, with the six compounds found to reduce Miro1 protein levels by 20% or more shown (Table 1A). Moreover, an additional 12 small molecules reduced Miro1 protein levels in 3 out of 4 biological repeats (Table 1B). We next screened the Biomol FDA library with 5-fold doses (1.25-2.5-5-10-20 μM) and in duplicate. […] We ranked these 3 hits in the order of the degree of Miro1 reduction (Table 1A). Taken together, we identified 14 actives (2.5% primary hit rate) and 12 potential actives.

| Compound | % Miro1 decrease in screen |
| --- | --- |
| COC(=O)C1=C(C)NC(C)=C(C(=O)OC2CCCN(Cc3ccccc3)C2)C1c1cccc([N+](=O)[O-])c1 (stereo not drawn) [Benidipine HCl] | A (Reduction of Miro levels by >30%) |
| C[N+]1(C)CCC(OC(=O)C(O)(c2ccccc2)C2CCCC2)C1 (stereo not drawn) [Glycopyrrolate] | B (Reduction of Miro levels by >20% and less than 30%) |
| Cn1nnc2c(C(N)=O)ncn2c1=O [Temozolomide] | A (Reduction of Miro levels by >30%) |
| CNC(=O)Oc1ccc2c(c1)[C@]1(C)CCN(C)[C@@H]1N2C [Physostigmine] | B (Reduction of Miro levels by >20% and less than 30%) |
| COc1ccc(/C=C/C(=O)Nc2ccccc2C(=O)O)cc1OC [Tranilast] | B (Reduction of Miro levels by >20% and less than 30%) |
| CN(C)CCC[C@@]1(c2ccc(F)cc2)OCc2cc(C#N)ccc21 [Escitalopram Oxalate] | A (Reduction of Miro levels by >30%) |

same assay, conditions: Table 1B additional small molecules (3 out of 4 biological repeats); 10 μM tested; following FCCP treatment

| Compound | % Miro1 decrease in screen |
| --- | --- |
| COc1ccc2[nH]c([S+]([O-])Cc3ncc(C)c(OC)c3C)nc2c1 (stereo not drawn) [Omeprazole] | C (Reduction of Miro by >10% and less than 20%) |
| CC(C(=O)O)c1ccc(CC2CCCC2=O)cc1 (stereo not drawn) [Loxoprofen] | B (Reduction of Miro levels by >20% and less than 30%) |
| CC(C(=O)O)c1ccc(-c2ccccc2)c(F)c1 (stereo not drawn) [Flurbiprofen] | B (Reduction of Miro levels by >20% and less than 30%) |
| C[C@H]1COc2c(C3(N)CC3)c(F)cc3c(=O)c(C(=O)O)cn1c23 [Pazufloxacin] | B (Reduction of Miro levels by >20% and less than 30%) |
